Results published in publication PMC11855827, “High-Throughput Screening of Five Compound Libraries for Anthelmintic Activity and Toxicity Leads to the Discovery of Two Flavonoid Compounds” (International Journal of Molecular Sciences, 2025).

Test system: C. elegans
Settings: Table S2, C. elegans SS assay, 110 μM, averages of 4 data points

SMILES	Percentage of motility inhibition 0 h	Percentage of motility inhibition 24 h
COc1cc(-c2coc3c([C@@H]4O[C@H](CO)[C@@H](O)[C@H](O)[C@H]4O)c(O)ccc3c2=O)ccc1O [3'‐Methoxypuerarin]	11%	51%
COc1ccc(-c2oc3c(OC)c(OC)c(OC)c(OC)c3c(=O)c2OC)cc1OC [3,5,6,7,8,3',4'‐Heptemthoxyflavone]	34%	6%
COc1cc(OC)c2c(=O)c(OC)c(-c3ccc(OC)c(OC)c3)oc2c1 [3,5,7,3′,4′‐Pentamethoxyflavone]	2%	24%
O=c1c(O)c(-c2ccc(O)cc2)oc2cc(O)ccc12 [3,7,4'‐Trihydroxyflavone]	0%	16%
CC1(COC(=O)c2ccccc2)CCC2(C)CCC3(C)C4=CCC5C(C)(CCC(OC(=O)c6ccccc6)C5(C)C)C4=CCC3(C)C2C1 (stereo not drawn) [3,29-O-Dibenzoyloxykarounidiol]	15%	9%
CC(=O)O[C@@H]1CC[C@@]2(C)[C@@H](CC[C@]3(C)[C@@H]2CC=C2[C@@H]4[C@@H](C)[C@H](C)CC[C@]4(C)CC[C@]23C)[C@@]1(C)C(=O)O [3-Acetyl-beta-boswellic acid]	15%	21%
CC(C)=CCCC(C(=O)O)C1CCC2(C)C3=C(CCC12C)C1(C)CCC(=O)C(C)(C)C1CC3 (stereo not drawn) [3-Dehydrotrametenolic acid]	17%	37%
CC1(C)CC[C@]2(C(=O)O)CC[C@]3(C)C(=CC[C@@H]4[C@@]5(C)CC[C@@H](O)C(C)(C)[C@@H]5CC[C@]43C)[C@@H]2C1 [3-Epioleanolic acid]	29%	34%
C[C@H]1[C@H](C)CC[C@]2(C(=O)O)CC[C@]3(C)C(=CC[C@@H]4[C@@]5(C)CC[C@H](O)C(C)(C)[C@@H]5CC[C@]43C)[C@H]12 [3-Epiursolic Acid]	3%	18%
CC(=O)O[C@H]1CC[C@]2(C)C3=C(CC[C@H]2C1(C)C)[C@]1(C)C[C@@H](O)[C@H]([C@@H](CCC=C(C)C)C(=O)O)[C@@]1(C)CC3 [3-O-Acetyl-16α-hydroxytrametenolic acid]	7%	10%
CC(=O)OC1CCC2(C)C(CCC3(C)C2CC=C2C4CC(C)(C)CCC4(C)CCC23C)C1(C)C(=O)O (stereo not drawn) [3-O-Acetyl-α-boswellic acid]	20%	14%
CC1(C)CC[C@]2(C(=O)O)[C@H](O)C[C@]3(C)C(=CC[C@@H]4[C@@]5(C)C[C@H](O)[C@H](O[C@@H]6O[C@H](CO)[C@@H](O)[C@H](O)[C@H]6O)C(CO)(CO)[C@@H]5CC[C@]43C)[C@@H]2C1 [3-O-Beta-D-Glucopyranosylplatycodigenin]	0%	0%
CSCCC(=O)O [3‐(Methylthio)propionic acid]	9%	0%
CCN1C[C@]2(COC)CC[C@H](OC)C34C1C([C@H](OC)[C@@H]32)[C@]1(OC(C)=O)[C@@H]2[C@H]4C[C@@](O)([C@@H]2OC(=O)c2ccccc2)[C@@H](OC)[C@@H]1O [3‐Deoxyaconitine]	9%	0%
Oc1cccnc1 [3‐Hydroxypyr idine]	18%	19%
Cc1ncccc1O [3‐Hydroxy‐2‐methylpyridine]	15%	0%
O=C(O)Cc1c[nH]c2ccccc12 [3‐Indoleacetic acid]	4%	11%
Cl.Cl.Cn1cncc1CCN [3‐Methylhistamine (dihydrochloride)]	4%	0%

SMILES	Percentage of motility inhibition 0 h	Percentage of motility inhibition 24 h
COc1c(-c2ccccc2)oc2cc(O)cc(O)c2c1=O [3‐O‐Methylgalangin]	0%	4%
O=c1cc(-c2ccc(O)cc2)oc2cccc(O)c12 [4',5‐Dihydroxyflavone]	39%	6%
COc1ccc(-c2coc3cc(OC)ccc3c2=O)cc1 [4',7‐Dimetho xyisoflavone]	21%	27%
COc1ccc(-c2coc3c([C@@H]4O[C@H](CO)[C@@H](O)[C@H](O)[C@H]4O)c(O)ccc3c2=O)cc1 [4'‐Methoxypuerarin]	14%	3%
COCc1c(CO)cnc(C)c1O [4'‐O‐Methylpyridoxine]	26%	1%
COc1ccc(/C=C/C(=O)c2ccc(OC)cc2)cc1 [4,4'‐Dimetho xychalcone]	24%	3%
CC1=COC(=O)[C@H]2[C@@H]1CC[C@@H]2C [4aα,7α,7aα-Nepetalactone]	17%	16%
CN1C[C@H](O)C[C@H]1C(=O)O [4‐Hydroxyhygric acid]	21%	0%
CC1(C)C=Cc2c(ccc(C(=O)/C=C/c3ccc(O)cc3)c2O)O1 [4‐Hydroxylonchocarpin]	11%	9%
O=Cc1c[nH]c2cccc(O)c12 [4‐Hydroxy‐1H‐indole‐3‐carbaldehyde]	23%	5%
O=c1cc(-c2ccc(O)cc2)oc2c(C3O[C@H](CO)[C@@H](O[C@@H]4O[C@H](CO)[C@@H](O)[C@H](O)[C@H]4O)[C@H](O)[C@H]3O)c(O)cc(O)c12 (stereo partly drawn) [4”‐O‐Glucosylvitexin]	0%	0%
COc1cc(OC)c2c(=O)cc(-c3ccc(OC)c(OC)c3)oc2c1 [5,7,3',4'‐Tetramethoxyflavone]	0%	0%
COc1ccc(-c2cc(=O)c3c(OC)cc(OC)cc3o2)cc1 [5,7,4'‐Trimethoxyflavone]	0%	1%
O=c1ccoc2cc(O)cc(O)c12 [5,7‐Dihydroxychromone]	0%	0%
COc1cc(OC)c2c(=O)cc(-c3ccccc3)oc2c1 [5,7‐Dimethoxyflavone]	37%	15%
COc1cc(OC)c2c(=O)cc(-c3ccc(O)c(O)c3)oc2c1 [5,7‐Dimethoxyluteolin]	24%	13%
C=C1CCC2C(C=C(C)C(=O)C3(OC(C)=O)CC(C)C(OC(=O)c4ccccc4)C3C1OC(C)=O)C2(C)C (stereo not drawn) [5,15-Diacetyl-3-benzoyllathyrol]	30%	32%
CC(=O)[C@H]1CC[C@H]2[C@@H]3CC[C@H]4CC(=O)CC[C@]4(C)[C@H]3CC[C@]12C [5a‐Pregnane‐3,20‐dione]	2%	17%
